Assay results published in patent publication US20250109121A1, “POTENT AND SELECTIVE SMARCA2 DEGRADING CHIMERIC MOLECULES AS CANCER THERAPEUTICS” (BOARD OF REGENTS, THE UNIVERSITY OF TEXAS SYSTEM, priority 2021, published 2025).
Read-outs that look alike come from different tables or passages of the source.

Assays:
H1693 = assay: Cell proliferation (colony assay) IC50; assay type: cell-based; conditions: Homo sapiens, NCI-H1693; H1693, mutant SMARCA4
Description: (§1) Cell lines with wild-type SMARCA4 (HCC44, H2122, H1792 and H1975) and cell lines with mutant SMARCA4 (H1693, HCC515, H322, and H1299) were seeded in appropriate dilutions to form colonies in about 1-3 weeks. Cells were treated with ACBI1 or Compound 101 at concentrations of 0.001, 0.01, 0.1, 1, and 10 μm. Colonies were fixed with glutaraldehyde (6% v/v), stained with crystal violet (0.5% w/v) and the percent area of colonies was determined (FIGS. 3A and 3B). In cell lines with wild-type SMARCA4, inhibition of colony growth was more pronounced after treatment with ACBI1 than Compound 101 (FIG. 3A).

H1792 = assay: Cell proliferation (colony assay) IC50; assay type: cell-based; conditions: Homo sapiens, NCI-H1792; H1792, wild-type SMARCA4
Description: as §1

H1975 = assay: Cell proliferation (colony assay) IC50; assay type: cell-based; conditions: Homo sapiens, NCI-H1975; H1975, wild-type SMARCA4; concentration at which 50% of cellular proliferation is inhibited
Description: as §1

H2122 = assay: Cell proliferation (colony assay) IC50; assay type: cell-based; conditions: Homo sapiens, NCI-H2122; H2122, wild-type SMARCA4
Description: as §1

H322 = assay: Cell proliferation (colony assay) IC50; assay type: cell-based; conditions: NCI-H322; H322, mutant SMARCA4
Description: as §1

HCC44 = assay: Cell proliferation (colony assay) IC50; assay type: cell-based; conditions: Homo sapiens; HCC44, wild-type SMARCA4
Description: as §1

HCC515 = assay: Cell proliferation (colony assay) IC50; assay type: cell-based; conditions: Homo sapiens; HCC515, mutant SMARCA4
Description: as §1

H441 = assay: Cell proliferation (colony assay) IC50; assay type: cell-based; conditions: Homo sapiens, NCI-H441; H441, wild-type SMARCA4
SMARCA2 [1] = molecular target: T1, SMARCA2 (Homo sapiens, UniProt P51531); assay: SMARCA2 degradation in cell lines, western blot; assay type: cell-based
SMARCA2 [2] = molecular target: T1, SMARCA2; assay: Immunohistochemistry of SMARCA2 in H1299 xenograft tumors; assay type: in vivo; design: from tissue; host or cells: H1299 xenograft tumour tissue from female NCR Nude mice; conditions: NCR Nude mice, 200 mg/kg intraperitoneally once per day for four days
Description: NCR Nude mice were injected with vehicle or SMARCA2 degrader Compound 101 (200 mg/kg) once per day for four consecutive days intraperitoneally. Tumor tissues were harvested 24 hours after the last dose and fixed in formalin for 24 hours, paraffin embedded, sectioned and stained according to standard procedures. Briefly, endogenous peroxidases were inactivated by 3% hydrogen peroxide. Non-specific signals were blocked using 3% BSA, 10% goat serum in 0.1% Triton X-100. After antigen retrieval in citrate buffer, slides were stained overnight at 4° C. using SMARCA2 antibodies (Cell Signaling, D9E8B1:2000). After overnight incubation, the slides were washed and incubated with secondary antibody (HRP-polymers, Biocare Medical) for 30 min at room temperature. The slides were washed three times and stained with DAB substrate (ThermoFisher Scientific). The slides were then counterstained with haematoxylin and mounted with mounting medium. The slides were imaged by Vectra microscope and the signal intensity and percentage of cells positive for SMARCA2 was quantified using Vectra 3.0.7 software.

T1 sequence (P51531 whole entry): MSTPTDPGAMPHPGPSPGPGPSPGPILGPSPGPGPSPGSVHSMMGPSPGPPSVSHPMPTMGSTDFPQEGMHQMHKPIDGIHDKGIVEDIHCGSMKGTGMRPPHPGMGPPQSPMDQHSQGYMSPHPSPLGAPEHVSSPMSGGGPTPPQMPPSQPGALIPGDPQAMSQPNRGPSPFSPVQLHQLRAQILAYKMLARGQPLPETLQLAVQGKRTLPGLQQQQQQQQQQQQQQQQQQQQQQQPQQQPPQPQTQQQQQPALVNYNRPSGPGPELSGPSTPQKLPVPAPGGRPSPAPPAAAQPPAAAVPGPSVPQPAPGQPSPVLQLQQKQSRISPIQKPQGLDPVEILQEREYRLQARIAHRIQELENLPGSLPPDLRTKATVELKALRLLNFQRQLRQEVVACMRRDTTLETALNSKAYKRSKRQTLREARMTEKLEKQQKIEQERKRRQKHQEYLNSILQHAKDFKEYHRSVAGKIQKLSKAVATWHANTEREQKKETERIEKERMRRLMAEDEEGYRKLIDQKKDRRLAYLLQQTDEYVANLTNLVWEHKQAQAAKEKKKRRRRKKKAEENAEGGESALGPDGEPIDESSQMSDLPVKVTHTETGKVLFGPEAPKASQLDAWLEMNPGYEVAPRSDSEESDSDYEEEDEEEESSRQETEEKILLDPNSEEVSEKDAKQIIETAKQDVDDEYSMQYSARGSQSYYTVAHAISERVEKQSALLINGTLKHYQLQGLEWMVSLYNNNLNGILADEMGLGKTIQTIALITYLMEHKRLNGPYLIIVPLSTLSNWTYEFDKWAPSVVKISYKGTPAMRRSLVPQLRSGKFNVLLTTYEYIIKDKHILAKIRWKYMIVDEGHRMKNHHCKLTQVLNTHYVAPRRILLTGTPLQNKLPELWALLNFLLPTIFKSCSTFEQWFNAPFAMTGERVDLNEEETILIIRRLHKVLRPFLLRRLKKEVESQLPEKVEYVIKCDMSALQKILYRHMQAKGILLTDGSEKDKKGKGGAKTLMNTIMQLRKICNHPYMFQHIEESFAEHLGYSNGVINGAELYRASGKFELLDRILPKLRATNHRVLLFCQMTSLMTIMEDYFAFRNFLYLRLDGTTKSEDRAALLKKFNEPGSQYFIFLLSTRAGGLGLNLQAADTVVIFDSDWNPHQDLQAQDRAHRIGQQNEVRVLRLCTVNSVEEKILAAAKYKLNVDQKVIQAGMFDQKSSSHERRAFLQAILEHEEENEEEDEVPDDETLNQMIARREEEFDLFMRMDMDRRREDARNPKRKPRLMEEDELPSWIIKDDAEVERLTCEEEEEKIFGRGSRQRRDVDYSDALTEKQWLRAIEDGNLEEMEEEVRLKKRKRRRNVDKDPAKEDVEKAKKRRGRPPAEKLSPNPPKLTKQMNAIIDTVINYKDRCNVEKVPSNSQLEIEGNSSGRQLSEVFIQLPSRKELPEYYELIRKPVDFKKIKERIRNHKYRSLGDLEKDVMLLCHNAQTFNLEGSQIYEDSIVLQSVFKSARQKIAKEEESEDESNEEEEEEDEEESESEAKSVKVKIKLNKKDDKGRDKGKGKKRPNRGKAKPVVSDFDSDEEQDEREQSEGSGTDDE

`Nc1nnc(-c2ccccc2O)cc1N1CCN(Cc2ccc(OCCOCCNc3cccc4c3C(=O)N(C3CCC(=O)NC3=O)C4=O)c(F)c2)CC1` (stereo not shown) [Compound 101] showed an IC50 (H1693) of 141 nM, an IC50 (H1792) of 8700 nM and an IC50 (H1975) greater than 10000 nM. The IC50 (H2122) was 2600 nM, the IC50 (H322) was 93 nM and the IC50 (HCC44) was 2500 nM. For the same compound, the IC50 (HCC515) was 817 nM, the IC50 (H441) was greater than 10000 nM and the Dmax (SMARCA2 [1]; A549, A549, mutant SMARCA4 cell line, read-out: SMARCA2 Dmax (%)) was 96%. The DC50 (SMARCA2 [1]; A549, mutant SMARCA4 cell line) was 57 nM, the DC50 (SMARCA2 [1]; H322, mutant SMARCA4 cell line) was 27 nM and the DC50 (SMARCA2 [1]; H838, mutant SMARCA4 cell line) was 26 nM. The DC50 (SMARCA2 [1]; H1693, mutant SMARCA4 cell line) was 113 nM, the DC50 (SMARCA2 [1]; H1793, mutant SMARCA4 cell line) was 2 nM and the DC50 (SMARCA2 [1]; H2023, mutant SMARCA4 cell line) was 42 nM. It also gave a DC50 (SMARCA2 [1]; H2126, mutant SMARCA4 cell line) of 10 nM, a DC50 (SMARCA2 [1]; H2228, wild-type SMARCA4 cell line) of 106 nM and a DC50 (SMARCA2 [1]; H2935, mutant SMARCA4 cell line) of 8 nM. For the same compound, the Dmax (SMARCA2 [1]; H2935, mutant SMARCA4 cell line, read-out: SMARCA2 Dmax (%)) was 83%, the Dmax (SMARCA2 [1]; HCC44, HCC44, wild-type SMARCA4 cell line, read-out: SMARCA2 Dmax (%)) was 99% and the DC50 (SMARCA2 [1]; HCC44, wild-type SMARCA4 cell line) was 69 nM. For the same compound, the Dmax (SMARCA2 [1]; HCC366, HCC366, mutant SMARCA4 cell line, read-out: SMARCA2 Dmax (%)) was 99%, the DC50 (SMARCA2 [1]; HCC366, mutant SMARCA4 cell line) was 13 nM and the Dmax (SMARCA2 [1]; HCC515, HCC515, mutant SMARCA4 cell line, read-out: SMARCA2 Dmax (%)) was 81%. It also gave a DC50 (SMARCA2 [1]; HCC515, mutant SMARCA4 cell line) of 83 nM, a Dmax (SMARCA2 [1]; HCC827, HCC827, wild-type SMARCA4 cell line, read-out: SMARCA2 Dmax (%)) of 83% and a DC50 (SMARCA2 [1]; HCC827, wild-type SMARCA4 cell line) of 70 nM. The DC50 (SMARCA2 [1]; HCC2279, wild-type SMARCA4 cell line) was 32 nM, the Dmax (SMARCA2 [1]; HCC2279, wild-type SMARCA4 cell line, read-out: SMARCA2 Dmax (%)) was 99% and the DC50 (SMARCA2 [1]; HOP62, wild-type SMARCA4 cell line) was 33 nM. The Dmax (SMARCA2 [1]; HOP-62, HOP62, wild-type SMARCA4 cell line, read-out: SMARCA2 Dmax (%)) was 99%, the Dmax (SMARCA2 [1]; NCI-H322, H322, mutant SMARCA4 cell line, read-out: SMARCA2 Dmax (%)) was 99% and the Dmax (SMARCA2 [1]; NCI-H441, H441, wild-type SMARCA4 cell line, read-out: SMARCA2 Dmax (%)) was 67%. The Dmax (SMARCA2 [1]; NCI-H838, H838, mutant SMARCA4 cell line, read-out: SMARCA2 Dmax (%)) was 98%, the Dmax (SMARCA2 [1]; NCI-H1693, H1693, mutant SMARCA4 cell line, read-out: SMARCA2 Dmax (%)) was 84% and the Dmax (SMARCA2 [1]; NCI-H1792, H1792, wild-type SMARCA4 cell line, read-out: SMARCA2 Dmax (%)) was 89%. For the same compound, the Dmax (SMARCA2 [1]; NCI-H1793, H1793, mutant SMARCA4 cell line, read-out: SMARCA2 Dmax (%)) was 99%, the Dmax (SMARCA2 [1]; NCI-H1975, H1975, wild-type SMARCA4 cell line, maximum degradation as percentage of DMSO control, read-out: SMARCA2 Dmax (%)) was 93% and the Dmax (SMARCA2 [1]; NCI-H2023, H2023, mutant SMARCA4 cell line, read-out: SMARCA2 Dmax (%)) was 99%. For the same compound, the Dmax (SMARCA2 [1]; NCI-H2122, H2122, wild-type SMARCA4 cell line, read-out: SMARCA2 Dmax (%)) was 94%, the Dmax (SMARCA2 [1]; NCI-H2126, H2126, mutant SMARCA4 cell line, read-out: SMARCA2 Dmax (%)) was 99% and the Dmax (SMARCA2 [1]; NCI-H2228, H2228, wild-type SMARCA4 cell line, read-out: SMARCA2 Dmax (%)) was 82%. The Dmax (SMARCA2 [1]; mutant SMARCA4 cells (Table 5), read-out: SMARCA2 Dmax, span over cell lines) was 81 to 99%, the Dmax (SMARCA2 [1]; wild-type SMARCA4 cells (Table 4), read-out: SMARCA2 Dmax, span over cell lines) was 82 to 99% and the “SMARCA2 in tumor tissue by immunohistochemistry (in words)” value (SMARCA2 [2]) was “significant reduction in SMARCA2”. For the same compound, the “reduction in the percentage of SMARCA2 positive cells” value (SMARCA2 [2]; tumor harvested 24 hours after last dose, versus vehicle) was “more than 50%”.
